Assay results from article PMC6344228 (Cell Chemical Biology, 2019).
Several values for one entry are separate records, joined by “and”; a condition that tells them apart may be missing. Equal entries are not always repeated. Where two headings read alike, the source gives them in different places. Values belong to the molecule of their own block, whether it stands above or below them.

What was measured:
monomeric CDK1 = target: T1, monomeric CDK1 (Homo sapiens, UniProt P06493); assay: Differential scanning fluorimetry (DSF), CDK1; assay type: binding; conditions: read-out: ΔTm CDK1
T1 construct: Full-length human CDK1 was expressed in insect cells either untagged (from pVL1393) or as a 3C-protease cleavable GST fusion; GST (N, cleaved yes); made in house; host or cells: insect cells (Sf9 baculovirus)
T1 sequence (P06493 whole entry, the tested form may be a part): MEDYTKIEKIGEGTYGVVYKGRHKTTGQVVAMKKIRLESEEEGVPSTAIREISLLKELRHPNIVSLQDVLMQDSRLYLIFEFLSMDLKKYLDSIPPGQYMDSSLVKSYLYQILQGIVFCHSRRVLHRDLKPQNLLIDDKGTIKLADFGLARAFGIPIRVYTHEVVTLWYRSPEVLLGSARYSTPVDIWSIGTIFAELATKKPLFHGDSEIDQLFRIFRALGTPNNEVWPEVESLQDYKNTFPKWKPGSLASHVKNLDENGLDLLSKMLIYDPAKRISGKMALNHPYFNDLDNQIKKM
Protocol: (§1) The stability of the CDK1 and CDK2 inhibitor complexes were assessed by differential scanning fluorimetry (DSF) using a ViiA7 Real-Time PCR system (Applied Biosystems). Purified CDK1 (4 μM) and CDK2 (6 uM) in their respective gel filtration buffers were assayed in the presence of 10 μM inhibitor in 8% DMSO, in triplicate, in a 384-well plate. […] The resulting data was plotted and the inflection point (Tm) calculated using the Boltzmann equation in Applied Biosystems software.

CDK1-cyclin B [1] = conditions: read-out: IC50 Published measurements CDK1B; scintillation proximity assay; ref Whittaker et al., 2017; Byth et al., 2009; cited from earlier work
CDK1-cyclin B [2] = conditions: radiolabelled γ33P-ATP kinase assay, read-out: IC50 Published measurements CDK1B, cited from earlier work
monomeric CDK2 = target: T2, monomeric CDK2 (Homo sapiens, UniProt P24941); assay: biochemical; assay type: binding; conditions: DSF; phosphorylated monomeric CDK2; 10 μM inhibitor
T2 construct: Human CDK2 (encompassing full length residues 1-298); GST (N, cleaved yes); made in house; host or cells: E. coli
Protocol: as §1

CDK2-cyclin A [3] = target: T3, CDK2-cyclin A (Homo sapiens, UniProt P24941); assay: biochemical; assay type: binding; set-up: Human CDK2 (encompassing full length residues 1-298); GST (N, cleaved yes); made in house; host or cells: E. coli (CDK2 and cyclin A2); conditions: phosphorylated CDK2-cyclin A complex; 30°C; n = 2, ± SD; read-out: ITC Kd CDK2A
Protocol: (§2) Individual protein samples were exchanged into ITC buffer (40 mM HEPES, 500 mM NaCl, 0.25 mM TCEP, pH 8.0) at 4°C using a Hitrap desalting column (GE Healthcare Life Sciences, Chicago, IL, USA) (i.e. CDK1 and cyclin B were not combined to form a complex prior to buffer exchange). Protein concentration was then determined at A280 nm using a Nanodrop 2000 (Thermoscientific, Waltham, MA, USA) and sequence derived extinction coefficients (http://web.expasy.org/protparam/). Proteins and compounds were degassed at 30°C directly before analysis. Compounds at 100 μM prepared in ITC buffer (40 mM HEPES, 500 mM NaCl, 0.25 mM TCEP, pH 8.0) and to a final DMSO concentration of 1% were titrated into 200 μL protein solutions prepared at 10 μM, 1% DMSO in the cell. All experiments used phosphorylated forms of CDK1 and CDK2 (on T161 or T160 respectively). For experiments carried out in the absence of cyclin, proteins were prepared on ice to a final concentration of 10 μM in ITC buffer and supplemented with 1% DMSO.

[4] = target: T4, GST-tagged unphosphorylated CDK2 (Homo sapiens, UniProt P24941); assay: biochemical; assay type: binding; conditions: unphosphorylated monomeric GST-CDK2; 20°C; duplicate, ± SD; read-out: SPR Kd CDK2
T4 construct: Human CDK2 (encompassing full length residues 1-298); made in house; host or cells: E. coli BL21(DE3)STAR
Protocol: (§3) SPR ligand interactions assays were performed on a Biacore S200 (GE Healthcare Life Sciences) at 20°C using multi-cycle settings. GST-tagged unphosphorylated CDK1 and CDK2 were immobilised onto the surface of a CM5 chip pre-immobilised with anti-GST antibody, provided as part of the GST-capture kit (GE Healthcare Life Sciences, catalogue number BR100223) following the GST immobilisation kit instructions. As a control, recombinant GST was immobilised onto the designated control flow cell. […] Preceding injection of each compound, three cycles of buffer injections were carried out over all surfaces (30 μL/min for 60 s with 360 s dissociation). Compounds were then injected over all surfaces (from low to high concentration) for 60 s at 30 μL/min before being allowed to dissociate for 360 s to record dose-responses. […] The experiment was conducted in SPR running buffer (20 mM HEPES, 150 mM NaCl, 0.01% Tween-20®, 1% DMSO, pH 7.4) and used an 8-point DMSO solvent correction (preparation of DMSO in DMSO-free SPR buffer to final concentrations of: 0.2%, 0.4%, 0.6%, 0.8% 1%, 1.2%, 1.4%, 1.6%) to account for any bulk flow interactions.

[5] = target: T5, GST-tagged unphosphorylated CDK1 (Homo sapiens, UniProt P06493); assay: biochemical; assay type: binding; conditions: unphosphorylated monomeric GST-CDK1; 20°C; duplicate, ± SD; read-out: SPR Kd CDK1
T5 construct: Full-length human CDK1 was expressed in insect cells either untagged (from pVL1393) or as a 3C-protease cleavable GST fusion; made in house; host or cells: insect cells (Sf9 baculovirus)
T5 sequence (P06493 whole entry, the tested form may be a part): as above
Protocol: as §3

[6] = target: T6, phosphorylated monomeric CDK2 (Homo sapiens, UniProt P24941); assay: biochemical; assay type: binding; conditions: phosphorylated monomeric (cyclin-free) CDK2; 30°C; n = 2, ± SD; read-out: ITC Kd CDK2
T6 construct: Human CDK2 (encompassing full length residues 1-298); GST (N, cleaved yes); made in house; host or cells: E. coli
Protocol: as §2

[7] = target: T7, phosphorylated monomeric CDK1 (Homo sapiens, UniProt P06493); assay: biochemical; assay type: binding; conditions: phosphorylated monomeric (cyclin-free) CDK1; 30°C; n = 2, ± SD; read-out: ITC Kd CDK1
T7 construct: Full-length human CDK1 was expressed in insect cells either untagged (from pVL1393) or as a 3C-protease cleavable GST fusion; GST (N, cleaved yes); made in house; host or cells: insect cells (Sf9 baculovirus)
T7 sequence (P06493 whole entry, the tested form may be a part): as above
Protocol: as §2

CDK1-cyclin B [8] = target: T8, CDK1-cyclin B (Homo sapiens, UniProt P06493); assay: biochemical; assay type: binding; conditions: phosphorylated CDK1-cyclin B complex; 30°C; n = 2, ± SD; read-out: ITC Kd CDK1B
T8 construct: Full-length human CDK1 was expressed in insect cells either untagged (from pVL1393) or as a 3C-protease cleavable GST fusion; GST (N, cleaved yes); made in house; host or cells: CDK1: insect cells (Sf9 baculovirus); cyclin B1: E. coli
T8 sequence (P06493 whole entry, the tested form may be a part): as above
T8 sequence (P14635 with tags, fused parts or gaps C167S/C238S/C350S partner limits assumed): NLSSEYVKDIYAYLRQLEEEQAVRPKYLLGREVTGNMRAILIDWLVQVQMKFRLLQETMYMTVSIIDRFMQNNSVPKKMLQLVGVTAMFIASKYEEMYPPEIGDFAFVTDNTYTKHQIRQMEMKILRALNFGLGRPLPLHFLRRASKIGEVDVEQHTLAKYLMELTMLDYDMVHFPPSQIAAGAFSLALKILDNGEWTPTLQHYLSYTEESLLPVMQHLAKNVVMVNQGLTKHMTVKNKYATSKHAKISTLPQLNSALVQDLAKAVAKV
Protocol: as §2

CDK2-cyclin A [9] = target: T3, CDK2-cyclin A; assay: biochemical; set-up: Human CDK2 (encompassing full length residues 1-298); GST (N, cleaved yes); made in house; host or cells: E. coli; conditions: ADP-Glo, 20 μM ATP, 20 μM peptide, 1.5 nM CDK2-cyclin A
Protocol: (§4) Briefly, the 5 inhibitors in the study were titrated against phosphorylated CDK2–cyclin A and CDK1–cyclin B, with reaction initiated through addition of ATP and substrate peptide HHASPRK (Enzo Scientific). ATP to ADP conversion was assessed using the ADP-Glo assay (Promega) essentially as described by the manufacturers. […] Reactions were initiated by the addition of 20 μM ATP and 20 μM peptide. All activity assays were performed in triplicate in white low volume 384-well plates using a PheraStar plate reader (BMG).

CDK1-cyclin B [10] = target: T8, CDK1-cyclin B; assay: biochemical; conditions: ADP-Glo, 20 μM ATP, 20 μM peptide, 4 nM CDK1-cyclin B
Protocol: as §4

CDK2-cyclin A [11] = conditions: radiolabelled γ33P-ATP kinase assay; ref Lane et al., 2001; read-out: IC50 Published measurements CDK2A; cited from earlier work
[12] = DSF, phosphorylated monomeric CDK1, 10 μM inhibitor

SMILES: Cc1ncc(-c2ccnc(Nc3ccc(S(C)(=O)=O)cc3)n2)n1C(C)C [AZD5438]
ΔTm at 10 µM (monomeric CDK1; [12]): -2.6 °C | IC50 (CDK1-cyclin B [1]): 16 nM

ΔTm at 10 µM (monomeric CDK1; [12]): 0.9 °C | ΔTm at 10 µM (monomeric CDK2): 7.3 °C
SMILES: CN1CC[C@H](c2c(O)cc(O)c3c(=O)cc(-c4ccccc4Cl)oc23)[C@H](O)C1 [Alvocidib]

SMILES: CCn1cnc2c(Nc3cccc(Cl)c3)nc(NC3CCCCC3N)nc21 (stereo not shown) [CGP74514A]
Kd (CDK2-cyclin A [3]): 224 ± 14 nM | Kd [4]: 312 ± 52 nM | Kd [5]: 13500 nM | IC50 (CDK1-cyclin B [2]; ref Imbach et al., 1999): 25 nM | Kd [6]: 715 ± 15 nM | Kd [7]: > 20000 nM | Kd (CDK1-cyclin B [8]): 950 ± 50 nM | IC50 (CDK2-cyclin A [9]; read-out: IC50 Lab measurements CDK2A): 33 nM | Ki (CDK2-cyclin A [9]; read-out: Ki (in parenthesis) Lab measurements CDK2A): 18.3 nM | ΔTm at 10 µM (monomeric CDK1): -3.3 °C | ΔTm at 10 µM (monomeric CDK2): 5.2 °C | IC50 (CDK1-cyclin B [10]; read-out: IC50 Lab measurements CDK1B): 833 nM | Ki (CDK1-cyclin B [10]; read-out: Ki (in parenthesis) Lab measurements CDK1B): 463 nM
